In patent US20060069132A1, “Azolecarboxamide herbicides” (priority 2004, published 2006):

What was measured:
[1] = test system: velvetleaf; assay: Test B pre-/postemergence herbicide test; format: in vivo, Abutilon theophrasti; conditions: for Velvetleaf plant response rating: postemergence; for Plant response rating, Velvetleaf: 0 = no effect, 100 = complete control; for Plant response rating, Velvetleaf / Plant response rating (0 to 100 scale), Velvetleaf: preemergence; for Plant response rating (0 to 100 scale), Velvetleaf: 0 is no effect
Procedure, shortened: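 Response was scored visually 13 to 15 days after treatment against untreated greenhouse controls, 0 meaning no effect and 100 complete control. Formulations (solvent mixture plus surfactant) went onto soil after planting, onto foliage of 1- to 4-leaf plants, and onto 2-leaf plants in a flooded paddy set including rice and barnyardgrass.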

[2] = test system: kochia; assay: Test C pre-/postemergence herbicide test; format: in vivo, Kochia scoparia
Procedure, shortened: (§1)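 Preemergence: seeds planted and treated with compound in non-phytotoxic solvent with surfactant; postemergence: plants at 2 to 18 cm (1- to 4-leaf stage) sprayed likewise. Kept in greenhouse 12 to 14 days, then visually rated against controls, 0 (no effect) to 100 (complete control).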

[3] = test system: yellow nutsedge; assay: Test C pre-/postemergence herbicide test; format: in vivo, Cyperus esculentus
Procedure, shortened: as §1

[4] = test system: soybean; assay: Test C pre-/postemergence herbicide test; format: in vivo, Glycine max
Procedure, shortened: as §1

[5] = test system: bermudagrass; assay: Test C pre-/postemergence herbicide test; format: in vivo, Cynodon dactylon; conditions: for Bermudagrass plant response rating: 500 g ai/ha
Procedure, shortened: as §1

[6] = test system: ducksalad; assay: Test C flooded paddy test; format: in vivo, Heteranthera limosa; conditions: for Plant response rating, Ducksalad: 500 g ai/ha, visual rating after 12 to 14 days
[7] = test system: cocklebur; assay: Test C pre-/postemergence herbicide test; format: in vivo, Xanthium strumarium; conditions: for Cocklebur plant response rating: 500 g ai/ha
Procedure, shortened: as §1

[8] = test system: large crabgrass; assay: Test C pre-/postemergence herbicide test; format: in vivo, Digitaria sanguinalis
Procedure, shortened: as §1

[9] = 125 g ai/ha, visual rating, scale 0 (no effect) to 100 (complete control)
[10] = 500 g ai/ha, scale 0 to 100, 0 is no effect, 100 is complete control
[11] = 62 g ai/ha, preemergence, scale 0 to 100
[12] = 125 g ai/ha, scale 0 (no effect) to 100 (complete control), visual, 12 to 14 days, preemergence
[13] = 250 g ai/ha, scale 0-100, preemergence
[14] = 500 g ai/ha, scale 0 to 100 (0 no effect, 100 complete control), visual, 12 to 14 days, preemergence
[15] = 62 g ai/ha, preemergence, scale 0 to 100, 0 no effect, 100 complete control
[16] = Preemergence, scale 0 to 100, 0 no effect, 100 complete control
[17] = 125 g ai/ha, scale 0 to 100 (0 no effect, 100 complete control)
[18] = 250 g ai/ha, scale of 0 to 100, 0 is no effect, 100 is complete control
[19] = scale 0 to 100 (0 no effect, 100 complete control)
[20] = 125 g ai/ha, 100 is complete control
[21] = Postemergence, 500 g ai/ha, scale 0 to 100
[22] = Postemergence, 250 g ai/ha, scale 0 to 100, 0 no effect, 100 complete control
[23] = postemergence, 125 g ai/ha, scale 0 to 100
[24] = postemergence, 62 g ai/ha, scale 0 to 100

## CCn1nc(C2(C)CC2)cc1C(=O)Nc1cc(C(=O)N(C)C)ccc1F [Compound 299]
[1]; [9]
  Velvetleaf plant response rating: 60
[1]; 500 g ai/ha, visual rating
  Plant response rating, Velvetleaf: 100
[1]; [10]
  Velvetleaf plant response rating: 100
[2]; [11]
  Plant response rating, Kochia: 100
[2]; [12]
  Plant response rating, Kochia: 100
[2]; [13]
  Plant response rating, Kochia: 100
[2]; [14]
  Plant response rating, Kochia: 100
[3]; [11]
  Plant response rating, Nutsedge, Yellow: 40
[3]; [12]
  Plant response rating, Nutsedge, Yellow: 50
[3]; [13]
  Plant response rating, Nutsedge, Yellow: 60
[3]; [14]
  Plant response rating, Nutsedge, Yellow: 80
[4]; [11]
  Plant response rating, Soybean: 55
[4]; [13]
  Plant response rating, Soybean: 90
[4]; [14]
  Plant response rating, Soybean: 95
[5]; [15]
  Plant response rating, Bermudagrass: 100
[5]; [12]
  Plant response rating, Bermudagrass: 100
[5]; [13]
  Plant response rating, Bermudagrass: 100
[5]; [16]
  Bermudagrass plant response rating: 100
[6]; 62 g ai/ha, scale 0 to 100
  Ducksalad plant response rating: 95
[6]; [17]
  Ducksalad plant response rating: 95
[6]; [18]
  Ducksalad plant response rating: 95
[6]; [19]
  Plant response rating, Ducksalad: 95
[7]; [11]
  Plant response rating, Cocklebur: 0
[7]; [12]
  Plant response rating, Cocklebur: 40
[7]; [13]
  Plant response rating, Cocklebur: 80
[7]; [16]
  Cocklebur plant response rating: 95
[8]; [11]
  Plant response rating, Crabgrass, Large: 100
[8]; [12]
  Plant response rating, Crabgrass, Large: 100
[8]; [13]
  Plant response rating, Crabgrass, Large: 100
[8]; [14]
  Plant response rating, Crabgrass, Large: 100

## CCn1nc(C(C)(C)C)cc1C(=S)Nc1cc(C(=S)N(C)C)ccc1F [Compound 305]
[1]; [9]
  Velvetleaf plant response rating: 20
[1]; 500 g ai/ha, visual rating
  Plant response rating, Velvetleaf: 100
[1]; [10]
  Velvetleaf plant response rating: 20
[2]; [11]
  Plant response rating, Kochia: 100
[2]; [12]
  Plant response rating, Kochia: 100
[2]; [13]
  Plant response rating, Kochia: 100
[2]; [14]
  Plant response rating, Kochia: 100
[3]; [11]
  Plant response rating, Nutsedge, Yellow: 10
[3]; [12]
  Plant response rating, Nutsedge, Yellow: 20
[3]; [13]
  Plant response rating, Nutsedge, Yellow: 25
[3]; [14]
  Plant response rating, Nutsedge, Yellow: 50
[4]; [11]
  Plant response rating, Soybean: 0
[4]; [13]
  Plant response rating, Soybean: 90
[4]; [14]
  Plant response rating, Soybean: 100
[5]; [15]
  Plant response rating, Bermudagrass: 80
[5]; [12]
  Plant response rating, Bermudagrass: 85
[5]; [13]
  Plant response rating, Bermudagrass: 100
[5]; [16]
  Bermudagrass plant response rating: 100
[6]; 62 g ai/ha, scale 0 to 100
  Ducksalad plant response rating: 0
[6]; [17]
  Ducksalad plant response rating: 0
[6]; [18]
  Ducksalad plant response rating: 0
[6]; [19]
  Plant response rating, Ducksalad: 0
[7]; [11]
  Plant response rating, Cocklebur: 10
[7]; [12]
  Plant response rating, Cocklebur: 15
[7]; [13]
  Plant response rating, Cocklebur: 65
[7]; [16]
  Cocklebur plant response rating: 90
[8]; [11]
  Plant response rating, Crabgrass, Large: 70
[8]; [12]
  Plant response rating, Crabgrass, Large: 100
[8]; [13]
  Plant response rating, Crabgrass, Large: 100
[8]; [14]
  Plant response rating, Crabgrass, Large: 100

## CCNC(=O)c1cccc(NC(=O)c2cc(C3(C)CC3)nn2CC)c1 [Compound 306]
[1]; [9]
  Velvetleaf plant response rating: 40
[1]; 500 g ai/ha, visual rating
  Plant response rating, Velvetleaf: 100
[1]; [10]
  Velvetleaf plant response rating: 60
[2]; [11]
  Plant response rating, Kochia: 0
[2]; [12]
  Plant response rating, Kochia: 80
[2]; [13]
  Plant response rating, Kochia: 100
[2]; [14]
  Plant response rating, Kochia: 100
[3]; [11]
  Plant response rating, Nutsedge, Yellow: 0
[3]; [12]
  Plant response rating, Nutsedge, Yellow: 0
[3]; [13]
  Plant response rating, Nutsedge, Yellow: 10
[3]; [14]
  Plant response rating, Nutsedge, Yellow: 40
[4]; [11]
  Plant response rating, Soybean: 5
[4]; [13]
  Plant response rating, Soybean: 15
[4]; [14]
  Plant response rating, Soybean: 40
[5]; [15]
  Plant response rating, Bermudagrass: 40
[5]; [12]
  Plant response rating, Bermudagrass: 85
[5]; [13]
  Plant response rating, Bermudagrass: 90
[5]; [16]
  Bermudagrass plant response rating: 100
[6]; 62 g ai/ha, scale 0 to 100
  Ducksalad plant response rating: 50
[6]; [17]
  Ducksalad plant response rating: 80
[6]; [18]
  Ducksalad plant response rating: 80
[6]; [19]
  Plant response rating, Ducksalad: 90
[7]; [11]
  Plant response rating, Cocklebur: 0
[7]; [12]
  Plant response rating, Cocklebur: 0
[7]; [13]
  Plant response rating, Cocklebur: 0
[7]; [16]
  Cocklebur plant response rating: 5
[8]; [11]
  Plant response rating, Crabgrass, Large: 100
[8]; [12]
  Plant response rating, Crabgrass, Large: 100
[8]; [13]
  Plant response rating, Crabgrass, Large: 100
[8]; [14]
  Plant response rating, Crabgrass, Large: 100

## CCn1nc(C(C)(C)C)cc1C(=O)Nc1cccc(OC(F)F)c1 [Compound 332]
[1]; [20]
  Plant response rating (0 to 100 scale), Velvetleaf: 30
[1]; [9]
  Velvetleaf plant response rating: 60
[1]; [10]
  Velvetleaf plant response rating: 90
[2]; [11]
  Plant response rating, Kochia: 100
[2]; [12]
  Plant response rating, Kochia: 100
[2]; [13]
  Plant response rating, Kochia: 100
[2]; [14]
  Plant response rating, Kochia: 100
[2]; [21]
  Kochia plant response rating: 100
[2]; [22]
  Plant response rating, Kochia: 95
[2]; [23]
  Plant response rating, Kochia: 90
[2]; [24]
  Plant response rating, Kochia: 80
[3]; [11]
  Plant response rating, Nutsedge, Yellow: 0
[3]; [12]
  Plant response rating, Nutsedge, Yellow: 0
[3]; [13]
  Plant response rating, Nutsedge, Yellow: 0
[3]; [14]
  Plant response rating, Nutsedge, Yellow: 0
[3]; [21]
  Nutsedge, Yellow plant response rating: 0
[3]; [22]
  Plant response rating, Nutsedge, Yellow: 0
[3]; [23]
  Plant response rating, Nutsedge, Yellow: 0
[3]; [24]
  Plant response rating, Nutsedge, Yellow: 0
[4]; [11]
  Plant response rating, Soybean: 0
[4]; [13]
  Plant response rating, Soybean: 0
[4]; [14]
  Plant response rating, Soybean: 10
[4]; [21]
  Soybean plant response rating: 90
[4]; [22]
  Plant response rating, Soybean: 60
[4]; [23]
  Plant response rating, Soybean: 50
[4]; [24]
  Plant response rating, Soybean: 45
[5]; [15]
  Plant response rating, Bermudagrass: 80
[5]; [12]
  Plant response rating, Bermudagrass: 100
[5]; [13]
  Plant response rating, Bermudagrass: 100
[5]; Postemergence, scale 0 to 100
  Bermudagrass plant response rating: 70
[5]; [22]
  Plant response rating, Bermudagrass: 50
[5]; [16]
  Bermudagrass plant response rating: 100
[5]; [23]
  Plant response rating, Bermudagrass: 10
[5]; [24]
  Plant response rating, Bermudagrass: 5
[6]; 62 g ai/ha, scale 0 to 100
  Ducksalad plant response rating: 20
[6]; [17]
  Ducksalad plant response rating: 90
[6]; [18]
  Ducksalad plant response rating: 95
[6]; [19]
  Plant response rating, Ducksalad: 95
[7]; [11]
  Plant response rating, Cocklebur: 0
[7]; [12]
  Plant response rating, Cocklebur: 0
[7]; [13]
  Plant response rating, Cocklebur: 0
[7]; Postemergence, scale 0 to 100
  Cocklebur plant response rating: 15
[7]; [22]
  Plant response rating, Cocklebur: 10
[7]; [16]
  Cocklebur plant response rating: 0
[7]; [23]
  Plant response rating, Cocklebur: 10
[7]; [24]
  Plant response rating, Cocklebur: 5
[8]; [11]
  Plant response rating, Crabgrass, Large: 75
[8]; [12]
  Plant response rating, Crabgrass, Large: 100
[8]; [13]
  Plant response rating, Crabgrass, Large: 100
[8]; [14]
  Plant response rating, Crabgrass, Large: 100
[8]; [21]
  Crabgrass, Large plant response rating: 70
[8]; [22]
  Plant response rating, Crabgrass, Large: 50
[8]; [24]
  Plant response rating, Crabgrass, Large: 30

## CCn1nc(C(C)(C)C)cc1C(=O)Nc1cc(C(=S)N(C)C)ccn1 [Compound 334]
[1]; [20]
  Plant response rating (0 to 100 scale), Velvetleaf: 100
[1]; [9]
  Velvetleaf plant response rating: 50
[1]; [10]
  Velvetleaf plant response rating: 60
[2]; [11]
  Plant response rating, Kochia: 100
[2]; [12]
  Plant response rating, Kochia: 100
[2]; [13]
  Plant response rating, Kochia: 100
[3]; 31 g ai/ha, scale 0 to 100, last section of Table C, preemergence
  Plant response rating, Nutsedge, Yellow: 5
[3]; [11]
  Plant response rating, Nutsedge, Yellow: 10
[3]; [12]
  Plant response rating, Nutsedge, Yellow: 40
[3]; [13]
  Plant response rating, Nutsedge, Yellow: 55
[4]; [11]
  Plant response rating, Soybean: 15
[4]; [13]
  Plant response rating, Soybean: 80
[5]; 31 g ai/ha, scale 0 to 100, 0 no effect, 100 complete control, last section of Table C (species set of preemergence test)
  Plant response rating, Bermudagrass: 100
[5]; [15]
  Plant response rating, Bermudagrass: 100
[5]; [12]
  Plant response rating, Bermudagrass: 100
[5]; [13]
  Plant response rating, Bermudagrass: 100
[6]; 62 g ai/ha, scale 0 to 100
  Ducksalad plant response rating: 75
[6]; [17]
  Ducksalad plant response rating: 85
[6]; [18]
  Ducksalad plant response rating: 85
[6]; [19]
  Plant response rating, Ducksalad: 90
[7]; [11]
  Plant response rating, Cocklebur: 30
[7]; [12]
  Plant response rating, Cocklebur: 60
[7]; [13]
  Plant response rating, Cocklebur: 70
[8]; [11]
  Plant response rating, Crabgrass, Large: 85
[8]; [12]
  Plant response rating, Crabgrass, Large: 100
[8]; [13]
  Plant response rating, Crabgrass, Large: 100
